Patent US20240360194A1, “New Peptides as Potent and Selective GIP Receptor Agonists” (Sanofi, priority 2021, published 2024)
Numbered stars: 1 amine (or outer) side, 2 acyl side, 3 side chain; on linkers, the order of the positions; unused ones are H or OH. Square brackets hold non-standard residues; d marks the D form. Side chains are listed from the residue outwards. Peptide text beside a SMILES is read from it. * marks the point of attachment. C18 diacid = O=C(O)CCCCCCCCCCCCCCCCC(=O)*; γGlu = O=C(O)[C@H](CCC(=O)[*:2])N[*:1]; Abu = CC[C@H](N)C(=O)O; AEEA = NCCOCCOCC(=O)O; Aib = CC(C)(N)C(=O)O

Assays:
human GIP receptor = target: T1, human GIP receptor (Homo sapiens, UniProt P48546); assay: In vitro cellular cAMP assay for GIP receptor efficacy (human adipocytes); format: cell-based; settings: for EC50: read-out: hGIPR EC50; for Emax: read-out: hGIPR Emax
T1 construct: human adipocytes endogenously expressing the human GIP receptor; host or cells: human preadipocytes (Lonza) differentiated to adipocytes
T1 sequence (P48546 22-466): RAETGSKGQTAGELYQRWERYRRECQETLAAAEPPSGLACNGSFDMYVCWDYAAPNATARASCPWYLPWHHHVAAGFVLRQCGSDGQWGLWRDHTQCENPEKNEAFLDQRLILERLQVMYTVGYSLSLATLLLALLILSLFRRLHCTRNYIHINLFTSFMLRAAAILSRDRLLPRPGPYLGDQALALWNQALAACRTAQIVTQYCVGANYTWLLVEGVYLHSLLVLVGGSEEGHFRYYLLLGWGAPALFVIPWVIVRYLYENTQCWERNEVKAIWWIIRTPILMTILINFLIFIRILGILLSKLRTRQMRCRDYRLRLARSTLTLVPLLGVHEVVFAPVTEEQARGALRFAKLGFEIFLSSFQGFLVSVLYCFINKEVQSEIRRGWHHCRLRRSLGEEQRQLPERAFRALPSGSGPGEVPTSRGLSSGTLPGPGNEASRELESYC
Protocol: For this, one vial of human preadipocytes (˜10^6 cells; Lonza) was thawed in a T-75 cell culture dish. The cells were cultivated at 37° C., 5% CO2, 95% humidity in Preadipocyte Growth Medium with Supplement Mix from Promo Cell.
After 3 days, the cells were washed with PBS and 1.5 ml Trypsin, incubated for 4 min, then resuspended in medium, centrifugated for 10 min @ 300 rcf RT, resuspended again and distributed to four T-75 cell culture dishes. Again, the cells were cultivated at 37° C., 5% CO2, 95% humidity.
After 5 days, the cells were washed with PBS and 1.5 ml Trypsin, incubated for 4 min, then resuspended in medium, centrifugated for 10 min @ 300 rcf RT, resuspended again and sawn in T-75 dishes (2.5×10^6 cells per dish) in 15 ml Differentiation medium each.
The differentiation medium had the following composition: DMEM (Gibco), Ham's F10 (Gibco), 15 mM HEPES (Gibco), 3% FCS (PAA), 33 μM biotin (Sigma-Aldrich), 17 μM Pantothenate (Sigma-Aldrich), 0.1 μM human insulin (Sigma-Aldrich), 1 μM dexamethason (Sigma-Aldrich), 0.1 μM PPARgamma agonist (#R2408, Sigma-Aldrich), 0.6×Anti-Anti (#15240, ThermoFisher), 200 μM IBMX (AppliChem), and 0.01 μM L-thyroxine (Sigma-Aldrich).
After 6 days of differentiation, 5000 cells per well were dispensed on a 96-well plate (#CLS3694 from Corning®, Sigma-Aldrich). For measurement of cAMP generation, 25 μL of test compound was added to each well of the 96-well plate, followed by incubation for 30 min at room temperature.
The cAMP generated following test compound stimulation was determined using a kit from Cisbio Corp. based on HTRF (Homogenous Time Resolved Fluorescence). The cAMP assay was performed according to manufacturer's instructions (Cisbio).
The cAMP content of cells was determined using a kit from Cisbio Corp. based on HTRF (Homogenous Time Resolved Fluorescence).
After addition of HTRF reagents diluted in lysis buffer (kit components), the plates were incubated for 1 h, followed by measurement of the fluorescence ratio at 665/620 nm.

[1] = target: human GLP-1 receptor (hGLP-1R) (Homo sapiens, UniProt P43220); assay: In vitro cellular cAMP assay for GLP-1 receptor efficacy (HEK-293 cell line over-expressing receptor); format: cell-based; settings: HEK-293, 0.1% BSA
[2] = target: T2, human GIP receptor (hGIPR) (Homo sapiens, UniProt P48546); assay: Binding assay, displacement of [125I]GIP from HEK-293 membranes over-expressing GIPR (SPA); settings: [125I]GIP displacement
T2 sequence (P48546 22-466): T1 sequence (P48546 22-466)
Protocol: (1) Preparation of Membranes from HEK-293 Cells Over-Expressing GIPR or GLP-1R
HEK-293 cells recombinantly over-expressing GIPR or GLP-1R were grown to 50% confluency, washed with warm 1×PBS (Gibco) and detached in HEPES/EDTA-buffer (100 mM HEPES pH 7.5, 5 mM EDTA). Cells were harvested by centrifugation at 4° C. and 3000×g and the pellets were stored at −80° C. until further processing.
After thawing on ice, pellets were resuspended in HEPES/EDTA-buffer and homogenized on ice for 1 min using Ultra-Turray T25. After subsequent sonification the cell debris was removed by centrifugation at 1000×g and 4° C. Supernatants were then ultra-centrifuged at 100000×g and 4° C. under vacuum for 30 min. Pellets were resuspended in HEPES/EDTA/NaCl-buffer (20 mM HEPES, 1 mM EDTA, 150 mM NaCl; add 1 Complete Mini Protease inhibitor cocktail to 10 ml buffer) and protein content was determined via BCA-Protein assay.
(2) Measurement of Binding Activity of Test Compounds to Human GIPR or GLP-1R

[3] = Solubility assessment (UHPLC-UV of supernatant, target 10 mg/ml); format: physicochemical; settings: for Soluble amount: 24 h, pH 7.4; for solubility at 24 h: pH 7.4, Soluble amount
Protocol: Prior to the solubility measurement of a peptide batch, its purity was determined through UHPLC/MS.
Therefore, solutions from solid samples were prepared in a buffer system with a concentration of 10 mg/ml compound based on the previously determined % purity: • Solubility buffer system A) 100 mM phosphate buffer pH 7.4 • Solubility buffer system B) 8 mM phosphate buffer pH 7.4, 14 mg/ml propylene glycol, 5.5 mg/ml phenol • Solubility buffer system C) 100 mM phosphate buffer pH 7.4, 2.7 mg/ml m-cresol
UHPLC-UV was performed after 1 h of gentle agitation and storage at 5° C. overnight (24 h) from the supernatant, which was obtained after 15 min of centrifugation at 2500 RCF (relative centrifugal acceleration).
The different UV extinction coefficients of sample and reference peptide were calculated based on the different amino acid sequences and considered in the concentration calculation.
The analytical method used was Analytical UHPLC Method A.
Peptide samples were prepared in solubility buffer system A or C and solubility was assessed as described in Methods.

human GLP-1 receptor (hGLP-1R), sequence (P43220 24-463): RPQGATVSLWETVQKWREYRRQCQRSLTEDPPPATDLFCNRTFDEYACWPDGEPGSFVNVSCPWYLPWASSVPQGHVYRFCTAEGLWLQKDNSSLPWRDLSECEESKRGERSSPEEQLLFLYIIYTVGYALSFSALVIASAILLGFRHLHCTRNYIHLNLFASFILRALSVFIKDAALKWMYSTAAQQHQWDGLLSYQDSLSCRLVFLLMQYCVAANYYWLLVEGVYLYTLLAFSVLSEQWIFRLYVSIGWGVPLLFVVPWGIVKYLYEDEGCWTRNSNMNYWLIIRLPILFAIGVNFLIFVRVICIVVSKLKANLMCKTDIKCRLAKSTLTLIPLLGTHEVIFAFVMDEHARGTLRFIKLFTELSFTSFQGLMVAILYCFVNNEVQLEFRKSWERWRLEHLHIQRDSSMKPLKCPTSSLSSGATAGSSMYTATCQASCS

SMILES: CC[C@H](NC(=O)[C@@H](NC(=O)CNC(=O)[C@H](CCC(=O)O)NC(=O)C(C)(C)NC(=O)[C@@H](N)Cc1ccc(O)cc1)[C@@H](C)O)C(=O)N[C@H](C(=O)N[C@@H](CO)C(=O)N[C@@H](CC(=O)O)C(=O)N[C@@H](CC(C)C)C(=O)N[C@@H](CO)C(=O)N[C@H](C(=O)NC(C)(C)C(=O)N[C@@H](CCCCNC(=O)COCCOCCNC(=O)COCCOCCNC(=O)CC[C@H](NC(=O)CCCCCCCCCCCCCCCCC(=O)O)C(=O)O)C(=O)N[C@@H](CC(=O)O)C(=O)N[C@@H](CCCNC(=N)N)C(=O)N[C@H](C(=O)N[C@@H](Cc1c[nH]cn1)C(=O)N[C@@H](CCC(N)=O)C(=O)N[C@@H](CCC(=O)O)C(=O)N[C@@H](CCC(=O)O)C(=O)N[C@@H](Cc1ccccc1)C(=O)N[C@H](C(=O)N[C@@H](CCC(=O)O)C(=O)N[C@@H](Cc1c[nH]c2ccccc12)C(=O)N[C@@H](CC(C)C)C(=O)N[C@@H](CC(C)C)C(=O)N[C@@H](C)C(=O)N[C@@H](CCC(N)=O)C(=O)NCC(=O)N1CCC[C@H]1C(=O)N[C@@H](CO)C(=O)N[C@@H](CO)C(=O)NCC(=O)N[C@@H](C)C(=O)N1CCC[C@H]1C(=O)N1CCC[C@H]1C(=O)N1CCC[C@H]1C(=O)N[C@@H](CO)C(N)=O)[C@@H](C)CC)[C@@H](C)CC)[C@@H](C)CC)[C@@H](C)CC [SEQ ID NO: 25, H2N-Y-Aib-E-G-T-Abu-I-S-D-L-S-I-Aib-K[{AEEA}2-gGlu-C18OH]-DRIHQEEFIEWLLAQGPSSGAPPPS-NH2] (H-Y[Aib]EGT[Abu]ISDLSI[Aib]K([AEEA-AEEA-γGlu-C18 diacid])DRIHQEEFIEWLLAQGPSSGAPPPS-NH2)
- EC50 (human GIP receptor): 0.2 nM
- Emax (human GIP receptor): 112%
- EC50 [1]: > 10 nM
- IC50 [2]: 0.1 nM
- Soluble amount [3]: >9.2 mg/mL
- solubility at 24 h [3]: > 8800 µg/mL

SMILES: CC[C@H](C)[C@H](NC(=O)[C@H](Cc1ccccc1)NC(=O)[C@H](CCC(=O)O)NC(=O)[C@H](CCC(=O)O)NC(=O)[C@H](CCC(N)=O)NC(=O)[C@H](Cc1c[nH]cn1)NC(=O)[C@@H](NC(=O)[C@H](CCCNC(=N)N)NC(=O)[C@H](CC(=O)O)NC(=O)[C@H](CCCCNC(=O)COCCOCCNC(=O)COCCOCCNC(=O)CC[C@H](NC(=O)CCCCCCCCCCCCCCCCC(=O)O)C(=O)O)NC(=O)C(C)(C)NC(=O)[C@@H](NC(=O)[C@H](CO)NC(=O)[C@H](CC(C)C)NC(=O)[C@H](CC(=O)O)NC(=O)[C@H](CO)NC(=O)[C@@H](NC(=O)[C@H](Cc1ccccc1)NC(=O)[C@@H](NC(=O)CNC(=O)[C@H](CCC(=O)O)NC(=O)C(C)(C)NC(=O)[C@@H](N)Cc1ccc(O)cc1)[C@@H](C)O)[C@@H](C)CC)[C@@H](C)CC)[C@@H](C)CC)C(=O)N[C@@H](CCC(=O)O)C(=O)N[C@@H](Cc1c[nH]c2ccccc12)C(=O)N[C@@H](CC(C)C)C(=O)N[C@@H](CC(C)C)C(=O)N[C@@H](C)C(=O)N[C@@H](CCC(N)=O)C(=O)N[C@@H](CCC(=O)O)C(=O)N1CCC[C@H]1C(=O)N[C@@H](CO)C(=O)N[C@@H](CO)C(=O)NCC(=O)N[C@@H](C)C(=O)N1CCC[C@H]1C(=O)N1CCC[C@H]1C(=O)N1CCC[C@H]1C(=O)N[C@@H](CO)C(N)=O [SEQ ID NO: 27, H2N-Y-Aib-E-G-T-F-I-S-D-L-S-I-Aib-K[{AEEA}2-gGlu-C18OH]-DRIHQEEFIEWLLAQEPSSGAPPPS-NH2] (H-Y[Aib]EGTFISDLSI[Aib]K([AEEA-AEEA-γGlu-C18 diacid])DRIHQEEFIEWLLAQEPSSGAPPPS-NH2)
- EC50 (human GIP receptor): 0.6 nM
- Emax (human GIP receptor): 116%
- EC50 [1]: > 10 nM
- IC50 [2]: 0.7 nM
- Soluble amount [3]: >8.4 mg/mL
- solubility at 24 h [3]: > 9000 µg/mL

SMILES: CC[C@H](C)[C@H](NC(=O)[C@H](Cc1ccccc1)NC(=O)[C@H](CCC(=O)O)NC(=O)[C@H](CCC(=O)O)NC(=O)[C@H](CCC(N)=O)NC(=O)[C@H](Cc1c[nH]cn1)NC(=O)[C@@H](NC(=O)[C@H](CCCNC(=N)N)NC(=O)[C@H](CC(=O)O)NC(=O)[C@H](CCCCNC(=O)COCCOCCNC(=O)COCCOCCNC(=O)CC[C@H](NC(=O)CCCCCCCCCCCCCCCCC(=O)O)C(=O)O)NC(=O)C(C)(C)NC(=O)[C@@H](NC(=O)[C@H](CO)NC(=O)[C@H](CC(C)C)NC(=O)[C@H](CC(=O)O)NC(=O)[C@H](CO)NC(=O)[C@@H](NC(=O)[C@H](Cc1ccccc1)NC(=O)[C@@H](NC(=O)CNC(=O)[C@H](CCC(=O)O)NC(=O)C(C)(C)NC(=O)[C@@H](N)Cc1ccc(O)cc1)[C@@H](C)O)[C@@H](C)CC)[C@@H](C)CC)[C@@H](C)CC)C(=O)N[C@@H](CCC(=O)O)C(=O)N[C@@H](Cc1c[nH]c2ccccc12)C(=O)N[C@@H](CC(C)C)C(=O)N[C@@H](CC(C)C)C(=O)N[C@@H](C)C(=O)N[C@@H](CCC(N)=O)C(=O)N[C@@H](CCC(=O)O)C(=O)N1CCC[C@H]1C(=O)N[C@@H](CO)C(=O)N[C@@H](CO)C(=O)NCC(=O)N[C@@H](C)C(=O)N1CCC[C@H]1C(=O)N1CCC[C@H]1C(=O)N1CCC[C@H]1C(=O)N[C@@H](CO)C(=O)O [SEQ ID NO: 28, H2N-Y-Aib-E-G-T-F-I-S-D-L-S-I-Aib-K[{AEEA}2-gGlu-C18OH]-DRIHQEEFIEWLLAQEPSSGAPPPS-OH] (H-Y[Aib]EGTFISDLSI[Aib]K([AEEA-AEEA-γGlu-C18 diacid])DRIHQEEFIEWLLAQEPSSGAPPPS-OH)
- EC50 (human GIP receptor): 0.5 nM
- Emax (human GIP receptor): 103%
- EC50 [1]: > 10 nM
- IC50 [2]: 0.8 nM
- Soluble amount [3]: >9.0 mg/mL
- solubility at 24 h [3]: > 9400 µg/mL
